Measured values published in US10975083B2, “Blood-brain barrier-penetrant dopamine-β-hydroxylase inhibitors” (BIAL—PORTELA & Cᵃ, S.A., priority 2016, dated 2021).
Like-named read-outs stand apart in the source and are kept apart here. Marks after values point to notes of the source that are not given here.

What was measured:
[1] = target: T1, DβH (Homo sapiens, UniProt P09172); test: DβH inhibition cell assay (SK-N-SH cellular homogenates, tyramine to octopamine); format: biochemical; conditions: for remaining activity at 0.1 µM: read-out: DβH activity in % of Ctrl (0.1 μM); for remaining activity at 1 µM: read-out: DβH activity in % of Ctrl (1 μM)
T1 construct: reaction mixture (total volume 500 μl) contained: cellular homogenate (75 μg total protein); host or cells: SK-N-SH cell homogenate
T1 sequence (P09172 1-617): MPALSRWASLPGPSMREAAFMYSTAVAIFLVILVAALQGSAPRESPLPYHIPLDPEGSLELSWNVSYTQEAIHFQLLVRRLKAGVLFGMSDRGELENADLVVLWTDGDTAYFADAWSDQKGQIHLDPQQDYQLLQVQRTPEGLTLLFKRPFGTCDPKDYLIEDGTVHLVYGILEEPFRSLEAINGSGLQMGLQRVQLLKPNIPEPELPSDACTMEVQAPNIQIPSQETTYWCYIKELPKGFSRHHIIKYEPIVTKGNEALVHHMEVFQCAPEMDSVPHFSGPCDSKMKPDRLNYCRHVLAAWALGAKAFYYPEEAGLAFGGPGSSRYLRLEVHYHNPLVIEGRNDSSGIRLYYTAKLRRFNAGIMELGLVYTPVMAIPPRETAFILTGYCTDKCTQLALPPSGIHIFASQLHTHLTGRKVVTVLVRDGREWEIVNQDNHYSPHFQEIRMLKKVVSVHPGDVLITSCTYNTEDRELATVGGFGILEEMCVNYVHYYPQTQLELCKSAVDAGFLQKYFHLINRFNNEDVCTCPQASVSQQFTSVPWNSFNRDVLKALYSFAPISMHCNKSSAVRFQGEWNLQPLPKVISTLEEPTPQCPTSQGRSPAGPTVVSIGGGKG

[2] = in vitro; conditions: dog, MDCK, pH 7.4
[3] = target: T2, Dopamine beta hydroxylase (Homo sapiens, UniProt P09172); test: DβH activity in human plasma; format: biochemical; conditions: inhibitor 0.1 μM
T2 construct: Human plasma samples were obtained from healthy donors; tissue Instituto Portugues do Sangue Transplantacao, Porto; host or cells: human plasma from healthy donors
T2 sequence (P09172 40-617 limits assumed): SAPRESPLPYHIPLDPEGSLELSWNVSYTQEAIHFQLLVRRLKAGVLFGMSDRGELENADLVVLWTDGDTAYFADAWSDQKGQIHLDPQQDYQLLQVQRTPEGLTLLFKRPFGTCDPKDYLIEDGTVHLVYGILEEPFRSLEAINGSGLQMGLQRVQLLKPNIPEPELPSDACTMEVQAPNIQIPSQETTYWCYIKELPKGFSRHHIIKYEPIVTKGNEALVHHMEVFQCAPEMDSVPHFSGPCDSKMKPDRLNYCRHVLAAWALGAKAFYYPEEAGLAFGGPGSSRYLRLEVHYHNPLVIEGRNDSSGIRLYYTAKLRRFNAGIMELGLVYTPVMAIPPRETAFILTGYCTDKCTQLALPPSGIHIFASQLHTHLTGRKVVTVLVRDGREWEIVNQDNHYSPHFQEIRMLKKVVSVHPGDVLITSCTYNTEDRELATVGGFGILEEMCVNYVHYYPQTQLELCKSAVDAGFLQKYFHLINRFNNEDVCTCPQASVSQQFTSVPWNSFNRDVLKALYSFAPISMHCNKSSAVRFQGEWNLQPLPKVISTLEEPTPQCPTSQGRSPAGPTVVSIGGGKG
Method: Furthermore, the ability of a compound to inhibit DβH activity may be assessed in human plasma using the following assay. […]. Dopamine beta hydroxylase activity in human plasma was measured by the method previously developed (Nagatsu, T. and Udenfriend, S. Photometric assay of dopamine-β-hydroxylase activity in human blood. Clin. Chem. 18(9) 980-983, 1972) with minor modifications. Catalase, N-ethylmaleimide, tyramine, disodium fumarate, pargyline, sodium acetate, ascorbic acid, copper sulfate and octopamine were obtained from Sigma Chemical Co., St. Louis, Mo. 63178. Human plasma samples were obtained from healthy donors (Instituto Portugues do Sangue Transplantacao, Centro Sangue Transplantacao, Porto, Portugal). From date of collection, plasma was stored at −80° C. until use. Test compounds were initially prepared in dimethyl sulfoxide at a concentration of 10 mM and diluted in dimethyl sulfoxide to the required concentrations. […] Absorbance was measured at […] in a 96-well plate by use of a SpectraMAX plus 384 (Molecular Devices) with software SOFTmax® PRO Software 5.3 spectrophotometer. Absorbance was linear with octopamine concentration from 0.5 to 20 μg/ml. Dopamine beta hydroxylase activity is determined as nmol of octopamine formed/ml of plasma/hour and effect of compounds is presented as % control. […]

[4] = inhibitor 0.1 μM, SK-N-SH cell homogenate
[5] = inhibitor 1 μM, SK-N-SH cell homogenate

| Structure (SMILES) | remaining activity at 0.1 µM [1] | remaining activity at 1 µM [1] | Papp A→B at 30 min, 50 μM [2] | remaining activity at 0.1 µM [1, 4] | remaining activity at 1 µM [1, 5] | remaining activity at 10 µM ([1]; inhibitor 10 μM, SK-N-SH cell homogenate, read-out: DβH activity in % of Ctrl (10 μM)) | DβH activity in % of control in human plasma assay (numbers in brackets) [3] |
| --- | --- | --- | --- | --- | --- | --- | --- |
| Fc1cc(F)cc(C23CC2c2c[nH]c(=S)n2C3)c1 (centres unmarked) [Example 53, 5a-(3,5-difluorophenyl)-5,5a,6,6a-tetrahydrocyclopropa[3,4]pyrrolo[1,2-c]imidazole-3(2H)-thione] | 66.5% | 11.8% | 25.1 ×10⁻⁶ cm/s | – | – | – | – |
| Fc1cc(F)cc([C@]23C[C@H]2c2c[nH]c(=S)n2C3)c1 [Example 54, (5aS,6aR)-5a-(3,5-difluorophenyl)-5,5a,6,6a-tetrahydrocyclopropa[3,4]pyrrolo[1,2-c]imidazole-3(2H)-thione] | – | – | 25.1 ×10⁻⁶ cm/s | 44.3% | 8.2% | – | – |
| Fc1ccc(F)c(C23CC2c2c[nH]c(=S)n2C3)c1 (centres unmarked) [Example 55, 5a-(2,5-difluorophenyl)-5,5a,6,6a-tetrahydrocyclopropa[3,4]pyrrolo[1,2-c]imidazole-3(2H)-thione] | – | – | 79.4 ×10⁻⁶ cm/s | 61% | 0.4% | – | – |
| Fc1ccc(F)c([C@]23C[C@H]2c2c[nH]c(=S)n2C3)c1 [Example 56, (5aS,6aR)-5a-(2,5-difluorophenyl)-5,5a,6,6a-tetrahydrocyclopropa[3,4]pyrrolo[1,2-c]imidazole-3(2H)-thione] | – | – | 15.8 ×10⁻⁶ cm/s | 41.7% | 7.8% | – | – |
| Fc1ccc(F)c([C@@]23C[C@@H]2c2c[nH]c(=S)n2C3)c1 [Example 57, (5aR,6aS)-5a-(2,5-difluorophenyl)-5,5a,6,6a-tetrahydrocyclopropa[3,4]pyrrolo[1,2-c]imidazole-3(2H)-thione] | – | – | 63.1 ×10⁻⁶ cm/s | 97.9% | 58.6% | 9.2% | – |
| Fc1cc(F)cc([C@H]2Cc3c[nH]c(=S)n3C2)c1 [Example 58, (R)-6-(3,5-difluorophenyl)-6,7-dihydro-2H-pyrrolo[1,2-c]imidazole-3(5H)-thione] | 106% | 59.8% | 126 ×10⁻⁶ cm/s | – | – | – | – |
| Fc1cc(F)cc([C@@H]2Cc3c[nH]c(=S)n3C2)c1 [Example 59, (S)-6-(3,5-difluorophenyl)-6,7-dihydro-2H-pyrrolo[1,2-c]imidazole-3(5H)-thione] | – | – | 251 ×10⁻⁶ cm/s | 100% | 27.8% | – | – |
| Cc1[nH]c(=S)n2c1[C@@H]1C[C@]1(c1cc(Br)ccc1F)C2 [Example 122, (5aS,6aR)-5a-(5-bromo-2-fluorophenyl)-1-methyl-5,5a,6,6a-tetrahydrocyclopropa[3,4]pyrrolo[1,2-c]imidazole-3 (2H)-thione] | – | – | – | – | – | – | (9.8)* % of Ctrl |
